Structures are written as SMILES.

In general, inhibition refers to the drop in the measured response relative to a control, in per cent. For orientation: Ki means the dissociation constant of the complex between target and ligand, obtained from inhibition or displacement. A high value points to lower affinity. As a reminder, the IC50 is the midpoint of a concentration-inhibition curve.

The target of assay [1] is T1, 5-HT3 receptor (Homo sapiens, UniProt P46098).
T1 sequence (P46098 24-478): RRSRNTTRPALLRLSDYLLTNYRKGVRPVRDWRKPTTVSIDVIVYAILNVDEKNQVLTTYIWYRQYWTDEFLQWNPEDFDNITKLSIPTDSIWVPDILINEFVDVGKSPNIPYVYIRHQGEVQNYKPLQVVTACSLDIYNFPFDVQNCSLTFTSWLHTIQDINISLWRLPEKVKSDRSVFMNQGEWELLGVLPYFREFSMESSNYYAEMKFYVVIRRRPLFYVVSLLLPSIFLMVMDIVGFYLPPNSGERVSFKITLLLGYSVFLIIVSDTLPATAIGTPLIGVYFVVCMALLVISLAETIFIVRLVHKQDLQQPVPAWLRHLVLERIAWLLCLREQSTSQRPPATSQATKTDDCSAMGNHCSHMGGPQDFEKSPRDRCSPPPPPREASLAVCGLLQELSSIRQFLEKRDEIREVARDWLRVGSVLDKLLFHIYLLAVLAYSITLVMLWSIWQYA
Kind of assay: Radio-ligand binding assay 5-HT3. The following applies: 10 μM compound; [3H] GR65630 35 nM; human rec. HEK293 cells. The protocol: (§1) Determination of binding affinities for various 5-HT receptors was performed by radio-ligand binding assays. Briefly, tissue or cells expressing the receptor of interest were suspended in incubation buffer and radio-ligands and 10 μM N-(2-chloro-3,4-dimethoxybenzylidene-amino)guanidine were added. After incubation, separation of bound and free radio-ligand was done by multiple washings with buffer.
(§2) The results were presented as the percent inhibition of specific binding. The IC50 values were determined by a non-linear least square regression analysis using MathIQ™ (ID Business Solution Ltd., UK). The inhibition constants (Ki) were calculated using the equation of Cheng and Prusoff (Cheng Y, Prusoff W H, Biochem. Pharmacol. 22:3099-3108, 1973) using the observed IC50 of the tested compound, the concentration of radioligand employed in the assay and the historical values for the KD of the ligand.

Assay [2] addresses 5-HT2A receptor (Homo sapiens, UniProt P28223). Kind of assay: Radio-ligand binding assay 5-HT2A. The following applies: 10 μM compound; [3H]-Ketanserin 2 nM; human cortex. The protocol: as §1, §2
Assay [3] concerns the target 5-HT5A receptor (Homo sapiens, UniProt P47898). Kind of assay: Radio-ligand binding assay 5-HT5A. The following applies: 10 μM compound; [3H] LSD 1 nM; human rec. HEK293 cells. On the procedure:
as §1, §2

In assay [4] the test system is antigen-induced arthritis. Kind of assay: Antigen-induced arthritis (AIA) in the rat, knee-joint swelling. The assay is classed as in vivo. The source says: Antigen-Induced Arthritis (AIA) is a Well-Documented Animal Experimental Model of human arthritic disease (Dumonde, D. C. and Glynn, L. E. (1962), Br. J. Exp. Pathol. 43:373-383). In this model, inflammation is induced by immunization followed by an intra-articular (knee-joint) challenge with the antigen. This causes an increase in knee diameter due to the formation of a pannus, i.e. hyperproliferative synovial tissue, which spreads over the articular cartilage into the bone, leading to erosion and destruction of the joint tissue (Carpenter, T. A. et al. (1994), Skeletal Radiol. 23:429-437).
AIA was applied for a short-term in vivo evaluation of our test compounds, with treatment during 4 days.
Female Dark Agouti rats were sensitized subcutaneously at the tail root with 1 mg mBSA (Sigma A1009) dissolved in 50 μl saline and emulsified in 50 μl Freund's complete adjuvant (Sigma F5881). Eleven days later the rats were challenged (unilateral) with an intra-articular (i.a.) injection of 75 μg mBSA dissolved in 50 μl saline. The procedures were carried out under a brief Isoflurane anaesthesia. Animals were treated once or twice daily with oral administration of N-(2-chloro-3,4-dimethoxybenzylideneamino)guanidine in saline. […] The knee-joint swelling was measured daily with an odimeter/calliper; the body weight was recorded before arthritis induction and at the end of the experiment. […]

The target in assay [5] is 5-HT6 receptor (Homo sapiens, UniProt P50406). Kind of assay: Radio-ligand binding assay 5-HT6. The following applies: 10 μM compound; [3H] LSD 1.5 nM; human rec. HEK293 cells. The protocol: as §1, §2
Sequence of 5-HT6 receptor (P50406 whole entry): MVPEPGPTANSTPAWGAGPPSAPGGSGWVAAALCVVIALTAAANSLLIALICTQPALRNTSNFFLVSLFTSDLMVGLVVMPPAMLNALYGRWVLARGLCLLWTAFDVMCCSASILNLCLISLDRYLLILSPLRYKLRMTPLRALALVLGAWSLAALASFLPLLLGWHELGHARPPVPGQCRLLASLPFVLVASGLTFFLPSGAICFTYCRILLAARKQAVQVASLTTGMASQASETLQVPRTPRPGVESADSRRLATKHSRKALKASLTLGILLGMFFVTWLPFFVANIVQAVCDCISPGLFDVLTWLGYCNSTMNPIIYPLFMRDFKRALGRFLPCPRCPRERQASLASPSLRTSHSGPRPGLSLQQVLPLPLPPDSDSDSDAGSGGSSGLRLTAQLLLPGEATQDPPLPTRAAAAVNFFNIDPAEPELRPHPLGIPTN
The target in assay [6] is 5HT2B receptor (Homo sapiens, UniProt P41595). Kind of assay: Radio-ligand binding assay 5-HT2B. On the procedure:
as §1, §2

The target of assay [7] is T2, 5-HT2C receptor (Homo sapiens, UniProt P28335).
T2 sequence (P28335 33-458): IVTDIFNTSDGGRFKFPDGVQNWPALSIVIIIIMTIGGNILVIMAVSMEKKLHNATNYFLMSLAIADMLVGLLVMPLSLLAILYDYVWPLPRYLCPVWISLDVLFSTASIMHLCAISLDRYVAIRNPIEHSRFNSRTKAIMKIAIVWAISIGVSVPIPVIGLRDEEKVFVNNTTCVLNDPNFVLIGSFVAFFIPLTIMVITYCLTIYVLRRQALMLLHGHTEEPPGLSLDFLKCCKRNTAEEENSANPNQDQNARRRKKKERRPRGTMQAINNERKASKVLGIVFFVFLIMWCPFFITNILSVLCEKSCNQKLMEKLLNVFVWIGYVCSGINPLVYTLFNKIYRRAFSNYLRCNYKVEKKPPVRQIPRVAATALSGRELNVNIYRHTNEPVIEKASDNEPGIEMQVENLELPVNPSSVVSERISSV
Kind of assay: 5-HT2C GTPγS binding assay (functionality). Format: biochemical. The following applies: FIG. 2, read-out: IC50, antagonistic effect on 5-HT2C. On the procedure: FIG. 2. Antagonistic effect of N-(2-chloro-3,4-dimethoxybenzylideneamino)guanidine on 5-HT2B and 5-HT2C receptors. The functionality of the compound was evaluated with the 5-HT2B tissue assay and the 5-HT2C GTPγS binding assay methods.
(§3) N-(2-chloro-3,4-dimethoxybenzylideneamino)guanidine was further tested for functionality against 5-HT2B (Cohen et al. (1987), J. Pharmacol. Exp. Ther. 243:264-269), 5-HT2C (Adlersber M, et al. (2000), J. Neurosci. Res. 61(6):674-685; Cussac D. et al. (2002), Mol. Pharmacol. 62(3):578-589) and 5-HT4 (Reeves et al. (1991), Br. J. Pharmacol. 103:1067-1072).
(In general: Binding of GTPγS marks nucleotide exchange on a G protein.)

In assay [8] the target is T2, 5-HT2C receptor. Kind of assay: Radio-ligand binding assay 5-HT2C. On the procedure: as §1, §2
The target in assay [9] is 5-HT4 receptor (Rattus norvegicus, UniProt Q62758). Kind of assay: 5-HT4 functionality test. The following applies: at 100 μM.
Sequence of 5-HT4 receptor (Q62758 whole entry): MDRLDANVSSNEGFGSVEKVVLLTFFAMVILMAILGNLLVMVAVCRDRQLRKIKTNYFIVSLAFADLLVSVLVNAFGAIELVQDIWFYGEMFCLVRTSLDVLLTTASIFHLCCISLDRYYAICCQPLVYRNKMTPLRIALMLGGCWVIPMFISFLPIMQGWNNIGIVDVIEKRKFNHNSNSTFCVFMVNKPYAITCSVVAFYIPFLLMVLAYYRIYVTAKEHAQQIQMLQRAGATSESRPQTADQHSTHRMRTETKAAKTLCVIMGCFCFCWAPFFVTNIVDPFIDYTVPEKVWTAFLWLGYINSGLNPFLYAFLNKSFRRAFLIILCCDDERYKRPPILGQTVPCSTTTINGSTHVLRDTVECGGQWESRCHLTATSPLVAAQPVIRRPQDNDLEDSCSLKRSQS
From the text: as §3

Where [10] appears, read: 10 different concentrations, Cheng-Prusoff, FIG. 1.

Sequence of 5HT2B receptor (P41595 whole entry): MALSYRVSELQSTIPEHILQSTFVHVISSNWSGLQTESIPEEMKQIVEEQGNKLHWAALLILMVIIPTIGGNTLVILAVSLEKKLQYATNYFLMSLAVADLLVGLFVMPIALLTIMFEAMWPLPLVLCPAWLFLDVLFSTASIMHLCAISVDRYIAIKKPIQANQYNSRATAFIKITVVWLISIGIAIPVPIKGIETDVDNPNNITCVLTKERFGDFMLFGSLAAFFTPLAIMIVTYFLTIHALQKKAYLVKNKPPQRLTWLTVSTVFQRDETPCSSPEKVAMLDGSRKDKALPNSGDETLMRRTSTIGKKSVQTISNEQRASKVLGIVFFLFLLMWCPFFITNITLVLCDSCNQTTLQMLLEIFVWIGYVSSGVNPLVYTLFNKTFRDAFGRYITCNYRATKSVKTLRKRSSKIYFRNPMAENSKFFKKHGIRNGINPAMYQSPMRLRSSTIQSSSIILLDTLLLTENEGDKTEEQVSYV
Sequence of 5-HT5A receptor (P47898 whole entry): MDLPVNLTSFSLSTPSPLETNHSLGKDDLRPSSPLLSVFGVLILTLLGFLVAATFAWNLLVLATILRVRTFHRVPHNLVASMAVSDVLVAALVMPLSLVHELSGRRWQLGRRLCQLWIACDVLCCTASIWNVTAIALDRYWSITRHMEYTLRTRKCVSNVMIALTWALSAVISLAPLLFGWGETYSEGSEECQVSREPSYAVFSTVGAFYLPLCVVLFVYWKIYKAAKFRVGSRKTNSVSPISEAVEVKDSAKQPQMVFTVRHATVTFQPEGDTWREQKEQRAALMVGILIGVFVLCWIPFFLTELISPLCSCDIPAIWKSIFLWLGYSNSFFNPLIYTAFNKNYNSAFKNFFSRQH
Sequence of 5-HT2A receptor (P28223 whole entry): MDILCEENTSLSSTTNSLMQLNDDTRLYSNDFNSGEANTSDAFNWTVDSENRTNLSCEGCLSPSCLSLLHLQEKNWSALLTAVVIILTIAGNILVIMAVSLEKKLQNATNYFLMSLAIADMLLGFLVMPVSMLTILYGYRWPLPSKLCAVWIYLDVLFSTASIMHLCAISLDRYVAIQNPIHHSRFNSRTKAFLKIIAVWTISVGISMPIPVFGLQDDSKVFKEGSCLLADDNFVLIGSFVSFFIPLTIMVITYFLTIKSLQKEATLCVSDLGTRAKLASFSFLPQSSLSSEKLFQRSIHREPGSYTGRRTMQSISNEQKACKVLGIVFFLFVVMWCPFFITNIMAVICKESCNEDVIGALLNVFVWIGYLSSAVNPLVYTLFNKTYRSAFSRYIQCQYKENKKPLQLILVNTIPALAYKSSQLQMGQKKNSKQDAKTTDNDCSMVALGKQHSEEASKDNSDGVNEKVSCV

`COc1ccc(C=NNC(=N)N)c(Cl)c1OC` [N-(2-chloro-3,4-dimethoxybenzylideneamino)guanidine]: the inhibition at 10 µM worked out at 3.3% in assay [1]; 45% in assay [2]; 54% in assay [3]; 2.6% in [5]; 107% in assay [6] (10 μM compound, [3H] LSD 1.2 nM, human rec. CHO.K1 cells); 80% in assay [8]. The “effect in AIA at administration one day after disease induction” value in assay [4] (administration started one day after disease induction) is given as “therapeutic effect”. Moreover, in assay [4] (oral, 1-10 mg/kg once or twice daily for 4 days from day of challenge, FIG. 5), the “knee-joint swelling in AIA” value was “reproducibly reduce joint swelling”. Besides, the Ki amounted to 0.263 µM in assay [6] (setting [10]) and 0.88 µM in [8] (setting [10]). Also, the IC50 in assay [7] came out at 16.5 µM. In addition, the “effect on 5-HT4 (functionality)” value in assay [9] is “no significant effect”.

These data come from patent US20120190751A1, “COMPOUNDS FOR TREATMENTS OF INFLAMMATION” (ANA-MAR AB, priority 2009, published 2012).
